Test results: patent publication US10322131B2, “Hydroxyacid derivatives, a process for their preparation and pharmaceutical compositions containing them” (LES LABORATOIRES SERVIER, priority 2015, dated 2019)
Like-named read-outs stand apart in the source and are kept apart here.

Legend:
H929 cells = assay: In vitro cytotoxicity (MTT) on H929 multiple myeloma tumour line; type: cell-based; details: Homo sapiens, NCI-H929, exposed 48 hours, Microculture Tetrazolium Assay
Description: The cytotoxicity studies were carried out on the H929 multiple myeloma tumour line.
The cells are distributed onto microplates and exposed to the test compounds for 48 hours.
The cell viability is then quantified by a colorimetric assay, the Microculture Tetrazolium Assay (Cancer Res., 1987, 47, 939-942).

Mcl-1 protein = Mcl-1 protein (Homo sapiens, UniProt Q07820); assay: Inhibition of Mcl-1 by the fluorescence polarisation technique; type: binding
Mcl-1 protein, sequence (Q07820 whole entry): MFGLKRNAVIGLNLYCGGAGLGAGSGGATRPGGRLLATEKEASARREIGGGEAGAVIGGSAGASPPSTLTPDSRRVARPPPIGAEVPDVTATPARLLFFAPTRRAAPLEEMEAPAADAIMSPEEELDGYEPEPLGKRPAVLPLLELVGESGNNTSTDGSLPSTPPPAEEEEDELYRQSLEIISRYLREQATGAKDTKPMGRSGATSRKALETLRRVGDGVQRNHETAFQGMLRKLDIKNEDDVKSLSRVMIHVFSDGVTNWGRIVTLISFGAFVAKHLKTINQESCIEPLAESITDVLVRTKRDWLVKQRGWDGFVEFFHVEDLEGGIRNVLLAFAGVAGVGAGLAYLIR
Outline: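 Competitive FP displacement of fluorescein-labelled peptide ligand (1 nM final) from Mcl-1 (5 nM final) in HEPES 10 mM, 150 mM NaCl, 0.05% Tween 20, pH 7.4, 5% DMSO final. Read after ~2 h at r.t.; IC50 from 11-point 4-parameter logistic fit of % mP reduction.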

[1] = fluorescence polarisation test, Fluorescein labelled ligand 1 nM, Mcl-1 protein 5 nM, ~2 hours at r.t., read-out: IC50 (M) Mcl-1 FP

| Compound | IC50 (H929 cells) | IC50 (Mcl-1 protein; [1]) | IC50 (Mcl-1 protein) |
| --- | --- | --- | --- |
| Cc1c(-c2c(-c3ccc(F)cc3)sc3ncnc(OC(Cc4ccccc4OCc4ccnc(-c5cccc(CO)c5)n4)C(=O)O)c23)ccc(OCCN2CCN(C)CC2)c1Cl [Example 3, (2R)-2-{[(5Sa)-5-{3-chloro-2-methyl-4-[2-(4-methylpiperazin-1-yl)ethoxy]phenyl}-6-(4-fluorophenyl)thieno[2,3-d]pyrimidin-4-yl]oxy}-3-[2-({2-[3-(hydroxymethyl)phenyl]pyrimidin-4-yl}methoxy)phenyl]propanoic acid] | 4.08 nM | 4.05e-09 M | – |
| COCCOCc1ccccc1-c1nccc(COc2ccccc2CC(Oc2ncnc3sc(-c4ccc(F)cc4)c(-c4ccc(OCCN5CCN(C)CC5)c(Cl)c4C)c23)C(=O)O)n1 [Example 9, (2R)-2-{[(5Sa)-5-{3-chloro-2-methyl-4-[2-(4-methylpiperazin-1-yl)ethoxy]phenyl}-6-(4-fluorophenyl)thieno[2,3-d]pyrimidin-4-yl]oxy}-3-{2-[(2-{2-[(2-methoxyethoxy)methyl]phenyl}pyrimidin-4-yl)methoxy]phenyl}propanoic acid] | 1.4 nM | 8.15e-09 M | – |
| Cc1c(-c2c(-c3ccc(F)cc3)sc3ncnc(OC(Cc4ccccc4OCc4ccnc(-c5cccc(COC(=O)NCCN6CCOCC6)c5)n4)C(=O)O)c23)ccc(OCCN2CCN(C)CC2)c1Cl [Example 42, (2R)-2-{[(5Sa)-5-{3-chloro-2-methyl-4-[2-(4-methylpiperazin-1-yl)ethoxy]phenyl}-6-(4-fluorophenyl)thieno[2,3-d]pyrimidin-4-yl]oxy}-3-{2-[(2-{3-[({[2-(morpholin-4-yl)ethyl]carbamoyl}oxy)methyl]phenyl}pyrimidin-4-yl)methoxy]phenyl}propanoic acid] | 44.5 nM | 4.45e-09 M | – |
| Cc1c(-c2c(-c3ccc(F)cc3)sc3ncnc(OC(Cc4ccccc4OCc4ccnc(-c5cccc(OP(=O)(O)O)c5)n4)C(=O)O)c23)ccc(OCCN2CCN(C)CC2)c1Cl [Example 28, (2R)-2-{[(5Sa)-5-{3-chloro-2-methyl-4-[2-(4-methylpiperazin-1-yl)ethoxy]phenyl}-6-(4-fluorophenyl)thieno[2,3-d]pyrimidin-4-yl]oxy}-3-[2-({2-[3-(phosphonooxy)phenyl]pyrimidin-4-yl}methoxy)phenyl]propanoic acid] | 48.4 nM | – | 4.15e-09 M |
| Cc1c(-c2c(-c3ccc(F)cc3)sc3ncnc(OC(Cc4ccccc4OCc4ccnc(-c5cccc(COC(=O)N6CCC(N7CCCCC7)CC6)c5)n4)C(=O)O)c23)ccc(OCCN2CCN(C)CC2)c1Cl [Example 37, (2R)-3-(2-{[2-(3-{[(1,4′-bipiperidin-1′-ylcarbonyl)oxy]methyl}phenyl)pyrimidin-4-yl]methoxy}phenyl)-2-{[(5Sa)-5-{3-chloro-2-methyl-4-[2-(4-methylpiperazin-1-yl)ethoxy]phenyl}-6-(4-fluorophenyl)thieno[2,3-d]pyrimidin-4-yl]oxy}propanoic acid] | 20.5 nM | 6.3e-09 M | – |
| Cc1c(-c2c(-c3ccc(F)cc3)sc3ncnc(OC(Cc4ccccc4OCc4ccnc(-c5cccc(OCCOCCO)c5)n4)C(=O)O)c23)ccc(OCCN2CCN(C)CC2)c1Cl [Example 39, (2R)-2-{[(5Sa)-5-{3-chloro-2-methyl-4-[2-(4-methylpiperazin-1-yl)ethoxy]phenyl}-6-(4-fluorophenyl)thieno[2,3-d]pyrimidin-4-yl]oxy}-3-{2-[(2-{3-[2-(2-hydroxyethoxy)ethoxy]phenyl}pyrimidin-4-yl)methoxy]phenyl}propanoic acid] | 3.25 nM | 3.05e-09 M | – |
| Cc1c(-c2c(-c3ccc(F)cc3)sc3ncnc(OC(Cc4ccccc4OCc4ccnc(-c5ccccc5COCC(O)CO)n4)C(=O)O)c23)ccc(OCCN2CCN(C)CC2)c1Cl [Example 27, (2R)-2-{[(5Sa)-5-{3-chloro-2-methyl-4-[2-(4-methylpiperazin-1-yl)ethoxy]phenyl}-6-(4-fluorophenyl)thieno[2,3-d]pyrimidin-4-yl]oxy}-3-{2-[(2-{2-[(2,3-dihydroxypropoxy)methyl]phenyl}pyrimidin-4-yl)methoxy]phenyl}propanoic acid] | 13.9 nM | 2.2e-09 M | – |
